{"source": "patent US20180200339A1", "about": "“METHODS OF REDUCING CORNEAL ENDOTHELIAL CELL LOSS” (Massachusetts Eye and Ear Infirmary, priority 2013, published 2018)", "key": {"[1]": {"test_system": "corneal endothelial cells", "test": "VIP treatment of mice after trigeminal axotomy: corneal endothelial cell density (immunofluorescence, ZO-1 staining)", "format": "in vivo, BALB/c mice", "settings": "daily intraperitoneal VIP 5 nM in 10 μL, day 14, versus saline", "protocol": "(§1) Six- to eight-week old male BALB/c mice (Charles River, Wilmington, Mass.) were used in these experiments. Trigeminal axotomy was performed by first anesthetizing the animals with a ketamine (100 mg/mL)/xylazine (20 mg/mL)/acepromazine (15 mg/mL) mixture. After anesthetization, small incision lateral canthotomy was performed, two tractional sutures were placed on the lid skin, and the conjunctival fornix were incised circumferentially around 90 degrees. The eye globe was rotated nasally by gently pushing the nasal fornix with blunt forceps, exposing the trigeminal nerve and minimizing intraoperative bleeding through mild elevation of the intraorbital pressure. The ophthalmic branches of the trigeminal nerve were cut at the posterior sclera close to the optic nerve with sharp forceps. After cutting the branches of the trigeminal nerve, the skin was sutured using 8-0 nylon. Tarsorrhaphy was performed to reduce the risk of infection and exposure keratitis in the mice. Finally, an antibiotic ointment (bacitracin-neomycin-polymyxin mixture) was applied to the sutured area and the treated eye in the mice. Fluxinin (0.25 mg /kg body weight) was administered every 12 hours for 24 hours by subcutaneous injection. […]\nCorneal endothelial cells were counted using cell counter plug-ins with ImageJ software (NIH, Bethesda, Md.). […] The results are expressed as mean±SEM, and considered significant if p<0.05."}, "[2]": {"test_system": "cornea", "test": "VIP treatment of mice after trigeminal axotomy: corneal thickness by AS-OCT", "format": "in vivo, BALB/c mice", "settings": "daily intraperitoneal VIP 5 nM in 10 μL, day 14, AS-OCT, versus saline", "protocol": "as §1, with “mice.” for “mice. Fluxinin (0.25 mg /kg body weight) was administered every 12 hours for 24 hours by subcutaneous injection.”\nNormal and post-operative cornea were examined using anterior segment optical coherence tomography (AS-OCT, RTVue, Optoview, Inc., Fremont, Calif.) at 7, 14 and 21 days after the surgical procedure. […] The corneal thickness was measured using built-in software. […]"}}, "data": [{"substance": "vasoactive intestinal peptide [VIP]", "values": [{"measurement": "corneal endothelial cell density", "setting": "[1]", "result": "didn't decrease"}, {"measurement": "corneal thickness", "setting": "[2]", "result": "remained within the normal ranged"}]}]}
